Test results: EP0652290A1, “Method for regulation of NF-kB” (YISSUM RESEARCH DEVELOPMENT COMPANY OF THE HEBREW …, priority 1993, dated 1995)
Where a SMILES comes first, the peptide text is derived from it. The star is where a group is joined. Cbz = O=C(OCc1ccccc1)*; CH2Cl = ClC*

Columns and labels:
[1] = tested on: NF-κB; test: NF-κB activation by EMSA, Jurkat cells stimulated with TNF-α; type: cell-based; conditions: for IC90: Homo sapiens, Jurkat cells, 30 min pretreatment, stimulated by TNF-α, EMSA, read-out: IC90, 90% inhibitory concentration, activation of NF-κB, Jurkat; for induction of NF-κB DNA-binding activity in response to PMA and TNF-α: Jurkat (TNF-α) and 70Z/3 (PMA) cell cultures, even at high concentrations
Protocol: The functional significance of the inducible decay of IκBα for activation of NF-κB was tested by exposure of cell cultures to various protease inhibitors. Six distinct serine protease inhibitors with chymotrypsin-like specificity efficiently prevent the induction of NF-κB DNA-binding activity in response to PMA and TNF-α (Table 1). Constitutive DNA-binding activities, including Oct-1, were not affected and no significant cell death was observed by a dye-exclusion assay and phase-contrast microscopy at inhibitor concentrations preventing […] activation. Leupeptin, antipain and the trypsin inhibitor tosyl-Lys-methylester were not effective, even at high concentrations.

[2] = tested on: NF-κB; test: NF-κB activation by EMSA, 70Z/3 cells stimulated with PMA, IL-1β or LPS; type: cell-based; conditions: for IC90: 30 min pretreatment, stimulated by PMA, EMSA, read-out: IC90, 90% inhibitory concentration, activation of NF-κB, 70Z/3; for induction of NF-κB activity in response to PMA: 25 µM
[3] = tested on: IκBα; test: IκBα level and stability by Western blot in 70Z/3 cells; type: cell-based
[4] = tested on: 70Z/3 cells; test: Inhibition of protein synthesis in 70Z/3 cells; type: cell-based; conditions: read-out: protein synthesis is inhibited
Protocol: 70Z/3 cells were treated with 25 µg/ml cycloheximide (Sigma). The protein synthesis inhibitor cycloheximide (CHX) activates NF-κB in 70Z/3 cells. At 10 µg/ml, protein synthesis is inhibited to 90% in 70Z/3 cells. Cell culture, extract preparation, EMSA, SDS-PAGE and Western blotting were as described above in Example 1. Densitometric scanning was done with a Howtek Scanmaster 3 and data analyzed by the software Quantity One Version 2.2.

[5] = tested on: NF-κB; test: HIV-LTR-Luc reporter activity in Jurkat cells; type: cell-based; conditions: stimulated 8 hours, PMA 10 ng/ml
Protocol: Jurkat cells were stimulated with the following reagents: (P), PMA (phorbol-12 myrislated 13-acetate), 10 ng/ml; (I), A23187 Ca⁺⁺ ionophore, 1µM; (3), anti-CD3 (OKT3), 5µg/ml; (28) anti-CD28 (monoclonal antibody 9.3), 3 µg/ml; (P/I), PMA + Ca⁺⁺ ionophore in IκBα transfected Jurkat cells; (NS) non-stimulated (0.1%, DMSO only).
The steps involved in the activation of NF-κB, include IκBα elimination through the appearance of the nuclear DNA binding activity, and the transcriptional activity. NF-κB activation was measured through the reporter activity of the HIV-LTR promoter, which is largely controlled by NF-κB in conjunction with the HIV Tat protein (Nabel, G., et al., Nature, 326:711-713, 1987). Jurkat cells were stimulated with the following reagents: (P), PMA (phorbol-12 myrislated 13-acetate), 10 ng/ml; (I), A23187 Ca⁺⁺ ionophore, 1µM; (3), anti-CD3 (OKT3), 5µg/ml; (28) anti-CD28 (monoclonal antibody 9.3), 3 µg/ml; (P/I), PMA + Ca⁺⁺ ionophore in IκBα transfected Jurkat cells; (NS) non-stimulated (0.1%, DMSO only). Jurkat cells were transfected by electroporation (Su, B., et al., supra) with 1 µg HIV-LTR-LUC (Israel, S., et al., Gene, 104:139-145, 1991) and 4 µg PBC-TAT. […] Following 30 hours transfection, the cells were stimulated for 8 hours and luciferase activity was determined using the Promega luciferase assay system.

[6] = tested on: IκBα; test: IκBα phosphorylation and degradation by Western blot, Jurkat cells stimulated with PMA and Ca⁺⁺ ionophore; type: cell-based; conditions: 25 µM TPCK or 400 ng/ml CsA 30 min, 100 µM PDTC 1 hour before PMA + Ca⁺⁺ ionophore
Protocol: Subcellular protein extracts were prepared essentially according to Beg, A.A. et al., supra. Following 20 minutes stimulation of Jurkat cells, cytosolic extracts (50 µg/point) were analyzed by Western blot, and nuclear extracts (5 µg/point) by EMSA, as described (Henkel, T., et al., Nature, 365:182-185, 1993).
Rabbit anti-IκBα was prepared against the GST-IκBα fusion protein by standard methods. The specifity of the antibodies was confirmed in competition assays using recombinant IκBα protein.
On the basis of the results in Example 3, phosphorylation of IκBα, in parallel to NF-κB activation, is induced according to the physiological requirements for T cell activation. Cell stimulation and extract preparation was as described above. […] Duration of Jurkat cell stimulation with PMA (10 ng/ml) and Ca⁺⁺ ionophore (1µM) was determined by Western blot analysis. […]
N-acetyl-Leu-Leu-Norleucinal (AcLLnL) is a reversible non-alkylating proteosome inhibitor not likely to disturb post-translation modification events. […] Anti-Rel A serum was a rabbit polyclonal antiserum prepared against the C-terminus portion of Rel A. In FIGURE 6a, cells were pretreated for 4 hours with 50 µg/ml AcLLnL, stimulated with PMA (10 ng/ml) and Ca⁺⁺ ionophore (1 µM) for the time intervals indicated and analyzed by Western blot. […]

[7] = tested on: NF-κB; test: NF-κB activation by TNF-α in various other cell lines; type: cell-based; conditions: various other cells lines
[8] = tested on: NF-κB; test: Dose response of NF-κB DNA binding (EMSA) in Hela cells stimulated with TNFα; type: cell-based
Protocol: Hela cells were pretreated for 5 hours with the indicated concentration of peptide aldehyde inhibitor or left untreated and then stimulated with TNFα (15ng/ml) for 20 minutes. The cells were then harvested for whole cell extract preparation. Extracts were analyzed for NF-κB DNA binding activity by electrophoretic mobility shift assay (EMSA) and relative IκBα protein levels were measured by Western blot analysis as shown in FIGURE 9.
IC₅₀ for ZLLF was 3.4 µM and 12.1 µM for AcLLnL.

[9] = tested on: IκBα; test: IκB degradation by Western blot in HeLa S3 or Hep G2 cells after TNFα, IL-1 or PMA; type: cell-based, Human; conditions: HeLa S3 or Hep G2, 4 hours pretreatment, 20 minutes
Protocol: Human HeLa S3 or Hep G2 cells were pretreated for 4 hours with the indicated peptide aldehyde prior to simulation with either TNFα (20ng/ml), IL-1(20 ng/ml) or PMA (100 µg/ml). The cells were harvested 20 minutes after induction and the extent of IκB degradation was examined via Western blot analysis using IκB specific antisera. FIGURE 7 summarizes the ability of related peptide aldehydes to block IκB degradation induced by a variety of agents which activate NF-κB. (+++) indicates greater than 85% inhibition, (++) indicates greater than 60% inhibition and (-) indicates no inhibition of IκB degradation was observed.

CC(=O)NC(Cc1ccccc1)C(=O)Oc1ccc2ccccc2c1 (racemic) [N-Acetyl-DL-Phe-β-Naphthylester (APNE), N-Acetyl-DL-Phe-β-Naphthylester]
IC90 [1]: 200 µM

O=c1oc(Cl)c(Cl)c2ccccc12 [3,4-Dichloroisocoumarin]
IC90 [1]: 20 µM

CC(C)C[C@H](NC(=O)OCc1ccccc1)C(=O)N[C@@H](Cc1ccc(O)cc1)C(=O)CCl [Benzyloxycarbonyl-Leu-Tyr-chloromethylketone] (Cbz-Leu-Tyr-CH2Cl)
IC90 ([2]; 70Z/3 cells): 10 µM

C[C@@H]1C[C@@H]([C@H](O)CC2CC(=O)NC(=O)C2)C(=O)[C@@H](C)C1 [CHX, cycloheximide]
half-life of IκBα ([3]; CHX-treated 70Z/3 cells, 25 µg/ml, no PMA): approximately 138 minutes | inhibition at 10 µg/mL [4]: 90% | DNA binding of NF-κB ([2]; 1 hour treatment of 70Z/3 cells with CHX, no PMA): induced only weakly

CC(=O)N[C@@H](CC(C)C)C(=O)N[C@@H](CC(C)C)C(=O)N[C@H](C=O)CCCNC(=N)N [Leupeptin]
induction of NF-κB DNA-binding activity in response to PMA and TNF-α [1]: not effective

CCOC(=O)[C@H](Cc1ccc(O)cc1)NC(=O)c1ccccc1 [N-Benzoyl-L-Tyr-ethylester (BTEE), N-Benzoyl-L-Tyr-ethylester]
IC90 [1]: 1000 µM

CCCCCCCCCCCCCC(=O)O[C@@H]1[C@@H](C)[C@@]2(O)[C@@H](C=C(CO)C[C@]3(O)C(=O)C(C)=C[C@@H]23)[C@@H]2C(C)(C)[C@]12OC(C)=O [PMA, phorbol 12-myristate 13-acetate]
time after stimulation until most of the IκBα had decayed ([3]; 70Z/3 cells): ≤ 5 min | half-life of IκBα ([3]; protein synthesis-arrested (CHX) 70Z/3 cells stimulated with PMA, phase of fastest decay): 1.5 min | enhancement of reporter activity (HIV-LTR-Luc) over basal [5]: two-fold

Cc1ccc(S(=O)(=O)NC(CCCCN)C(=O)CCl)cc1 (stereo not drawn) [TLCK, Tosyl-Lys-chloromethylketone]
IC90 [1]: 100 µM | induction of NF-κB activity in response to PMA ([2]; 70Z/3 cells): could not prevent | IC90 ([2]; 70Z/3 cells): 100 µM

Cc1ccc(S(=O)(=O)N[C@@H](Cc2ccccc2)C(=O)CCl)cc1 [TPCK, Tosyl-Phe-chloromethylketone]
inducible degradation of IκBα [6]: blocked both the inducible modification and degradation of IκBα completely | inducible modification (phosphorylation) of IκBα [6]: blocked both the inducible modification and degradation of IκBα completely | activation of NF-κB by TNF-α [7]: prevented | decay of IκB-α in response to PMA ([3]; 25 µM, 1 hour pretreatment, 70Z/3 cells): fully inhibited | IC90 [1]: 20 µM | induction of NF-κB activity in response to PMA ([2]; 70Z/3 cells): fully inhibited | IC90 ([2]; 70Z/3 cells): 20 µM | NF-κB activity when added after stimulation ([2]; 70Z/3 cells, added after stimulation with PMA, IL-1 or LPS): did not strongly interfere | activation of NF-κB by IL-1β and LPS ([2]; 70Z/3 cells, treated 10 minutes before stimulation): prevented

COC(=O)C(CCCCN)NS(=O)(=O)c1ccc(C)cc1.Cl (stereo not drawn) [tosyl-Lys-methylester]
induction of NF-κB DNA-binding activity in response to PMA and TNF-α [1]: not effective

benzyloxycarbonyl-Leu-Leu-Phenylalaninal [ZLLF]
TNFα induced NF-κB activity ([8]; 1µM to 200 µM, 5 hours pretreatment, TNFα 15ng/ml 20 minutes): inhibited TNFα induced NF-κB activity in a dose-dependent manner | IC50 ([8]; densitometric scanning of the EMSA and Western blots, TNFα, read-out: IC₅₀): 3.4 µM | rank as inhibitor of proteolysis of IκBα [9]: the most potent inhibitor
